In ChEMBL document CHEMBL1129889, “Design and synthesis of novel nonpeptide CCK-B receptor antagonists” (Bioorg Med Chem Lett, 1997) one finds IC50 and Ke data, which are given here for ten compounds.

In test [1] the target is T1, Gastrin/cholecystokinin type B receptor (Mus musculus, UniProt P56481).
T1 sequence (P56481 whole entry): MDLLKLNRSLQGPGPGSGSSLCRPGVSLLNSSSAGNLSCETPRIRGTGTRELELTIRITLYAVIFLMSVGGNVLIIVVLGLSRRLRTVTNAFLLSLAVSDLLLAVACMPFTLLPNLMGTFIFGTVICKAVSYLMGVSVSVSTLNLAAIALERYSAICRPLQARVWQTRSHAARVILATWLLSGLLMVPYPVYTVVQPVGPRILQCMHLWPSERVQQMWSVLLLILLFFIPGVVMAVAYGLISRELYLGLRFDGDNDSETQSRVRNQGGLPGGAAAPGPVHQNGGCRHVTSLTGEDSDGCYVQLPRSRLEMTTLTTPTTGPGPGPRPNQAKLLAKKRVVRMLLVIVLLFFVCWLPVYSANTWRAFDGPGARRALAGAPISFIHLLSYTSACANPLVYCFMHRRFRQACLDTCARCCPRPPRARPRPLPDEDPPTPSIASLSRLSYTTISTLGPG
The experiment in a line: Inhibition of [125 I]CCK-8 binding to Cholecystokinin type B receptor of mouse cerebral cortex. The format is tissue-based.

In test [2] the target is T2, Gastrin/cholecystokinin type B receptor (Mus musculus) (UniProt P56481).
T2 sequence (whole entry): T1 sequence (P56481 whole entry)
The test is described as follows: Binding activity.

The target of test [3] is T3, Cholecystokinin receptor type A (Rattus norvegicus, UniProt P30551).
T3 sequence (P30551 whole entry): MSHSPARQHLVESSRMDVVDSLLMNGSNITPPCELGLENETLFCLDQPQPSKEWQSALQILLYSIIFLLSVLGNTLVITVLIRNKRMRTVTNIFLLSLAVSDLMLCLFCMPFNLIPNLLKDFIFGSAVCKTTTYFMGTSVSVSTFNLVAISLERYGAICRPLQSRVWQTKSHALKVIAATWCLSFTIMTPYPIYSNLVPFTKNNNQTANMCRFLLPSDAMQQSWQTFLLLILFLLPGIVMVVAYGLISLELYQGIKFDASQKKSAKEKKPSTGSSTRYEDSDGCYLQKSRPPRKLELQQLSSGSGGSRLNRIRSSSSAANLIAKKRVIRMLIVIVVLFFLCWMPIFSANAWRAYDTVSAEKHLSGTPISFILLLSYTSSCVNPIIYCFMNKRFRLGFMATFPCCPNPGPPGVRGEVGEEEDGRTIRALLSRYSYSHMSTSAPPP
The experiment in a line: Inhibition of specific binding of [125 I] Bolton Hunter CCK-8 to Cholecystokinin type A receptor in the rat pancreas.

A value given as a limit tells only on which side of the number the result lay.

In the case of `CCOC(=O)c1cccc(NC(=O)NCc2nc3ccccc3c(=O)n2-c2cccc(OC(C)C)c2)c1`, the figures for the IC50 in test [1] and in test [3] were 126 nM and 1470 nM, respectively. In test [2], the Ke was found to be 230 nM.
Take `CC(C)Oc1cccc(-n2c(NC(=O)Nc3ccc(Br)cc3)nc3ccccc3c2=O)c1`: the IC50 in test [1] and in test [3] was above 1000 nM in each case.
As to `CC(C)Oc1cccc(-n2c(CNC(=O)NCc3ccc(Br)cc3)nc3ccccc3c2=O)c1`, the figures for the half-maximal inhibitory concentration (IC50) in test [1] and in test [3] were 652 nM and 3100 nM, respectively.
As for `CC(C)Oc1cccc(-n2c(CNC(=O)Nc3ccc(Br)cc3)nc3ccccc3c2=O)c1`, the 50% inhibitory concentration (IC50) in test [1] was determined as 137 nM; in test [3], 984 nM. Further, the Ke in test [2] amounted to 1300 nM.
On to `Cc1ccc(S(=O)(=O)NC(=O)NCc2nc3ccccc3c(=O)n2-c2cccc(OC(C)C)c2)cc1`, for which the half-inhibitory concentration (IC50) in test [1] and in test [3] was above 1000 nM each time.
For `CC(C)Oc1cccc(-n2c(CNC(=S)Nc3ccc(Br)cc3)nc3ccccc3c2=O)c1`, the half-inhibitory concentration (IC50) was 8020 nM in test [1] and 6930 nM in test [3].
As for `CC(C)Oc1cccc(-n2c(CNC(=O)Nc3ccc(C(F)(F)F)cc3)nc3ccccc3c2=O)c1`, the IC50 in test [1] was found to be 691 nM; in test [3], 674 nM.
On to `Cc1cccc(NC(=O)NCc2nc3ccccc3c(=O)n2-c2cccc(OC(C)C)c2)c1`, for which the concentration for half-maximal inhibition (IC50) in test [1] is 879 nM; in test [3], 1640 nM.
In the same order, the values of `CC(C)Oc1cccc(-n2c(CCNC(=O)Nc3ccc(Br)cc3)nc3ccccc3c2=O)c1` are 585 nM and 1630 nM.
As to `CC(C)Oc1cccc(-n2c(CNC(=O)Nc3ccc([N+](=O)[O-])cc3)nc3ccccc3c2=O)c1`, the values for the IC50 in test [1] and in test [3] were 212 nM and 385 nM, respectively.

What is called IC50 is the midpoint of a concentration-inhibition curve.
